Target: human D2LR E95^2.65A (Homo sapiens, UniProt P14416, E95A)
Experiment: ERK1/2 phosphorylation, E95^2.65A
Assay type: cell-based
Conditions: for Kb: read-out: KB Function (pERK1/2); for Schild slope: dopamine-mediated pERK1/2, competitive model

human D2LR E95^2.65A, sequence (P14416 whole entry E95A): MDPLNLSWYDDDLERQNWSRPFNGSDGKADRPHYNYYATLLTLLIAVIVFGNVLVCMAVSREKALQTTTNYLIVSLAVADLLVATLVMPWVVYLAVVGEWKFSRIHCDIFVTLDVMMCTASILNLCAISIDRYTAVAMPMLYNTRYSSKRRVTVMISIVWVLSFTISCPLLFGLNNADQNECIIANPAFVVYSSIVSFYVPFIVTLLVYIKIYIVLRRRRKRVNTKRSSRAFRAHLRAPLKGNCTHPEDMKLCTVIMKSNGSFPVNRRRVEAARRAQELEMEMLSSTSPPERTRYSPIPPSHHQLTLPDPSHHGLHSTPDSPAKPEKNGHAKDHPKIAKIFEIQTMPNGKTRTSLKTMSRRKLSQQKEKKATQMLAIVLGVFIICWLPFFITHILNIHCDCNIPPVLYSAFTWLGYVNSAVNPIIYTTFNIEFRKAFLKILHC

| SMILES | Logαβ (net cooperativity with dopamine) | fold loss in functional affinity vs WT [fold] | pKB Function (pERK1/2) | αβ (net cooperativity with dopamine) | fold loss in negative cooperativity with dopamine vs WT (pERK1/2) [fold] | Kb [µM] | Schild slope |
| --- | --- | --- | --- | --- | --- | --- | --- |
| O=C(N[C@H]1CC[C@H](CCN2CCc3ccccc3C2)CC1)c1cc2ccccc2[nH]1 [MIPS1278] | −0.30 ± 0.20 | 709 | 4.21 ± 0.15 | 0.50 | 6 | 61.7 | – |
| N#Cc1ccc2c(c1)CN(CCC1CCC(NC(=O)c3nc4ccccc4o3)CC1)CC2 (stereo not drawn) [MIPS1528] | – | – | 5.92 ± 0.07 | – | – | 1.2 | 1.68 ± 0.10 |
| O=C(N[C@H]1CC[C@H](CCN2CCc3ccc(Br)cc3C2)CC1)c1cc2ccccc2[nH]1 [MIPS1556] | – | – | 5.96 ± 0.12 | – | – | – | 1.08 ± 0.09 |
| N#Cc1ccc2c(c1)CN(CCC1CCC(NC(=O)c3ccc[nH]3)CC1)CC2 (stereo not drawn) [MIPS1576] | −1.24 ± 0.10 | 24 | 7.02 ± 0.15 | 0.06 | – | 0.095 | – |
| N#Cc1ccc2c(c1)CN(CCC1CCC(NC(=O)c3cc4cccnc4[nH]3)CC1)CC2 (stereo not drawn) [MIPS1588] | −1.12 ± 0.16 | 27 | 5.90 ± 0.20 | 0.08 | – | 1.26 | – |
